Measured values: patent US20220091133A1, “METHODS AND ASSAYS FOR IMMUNE PHENOTYPING” (Washington University, priority 2020, published 2022)
Values joined by “and” are separate entries in the source; they are usually repeats but may differ in a detail not shown here. Identical values can stand only once. Starred links: 1 amine or outer side, 2 acyl side, 3 side chain; linkers in the order of their positions; H or OH if unused. Positions of bridges follow the written chain, without caps; N, C: chain ends. Non-standard residues stand in square brackets, D forms with d. Residues, ends and D or L forms follow the SMILES beside them. *: point of attachment. hTyr(3S-OH,4S-OH,3'-OSO3H) = N[C@H](C(=O)O)[C@H](O)[C@@H](O)c1ccc(O)c(OS(=O)(=O)O)c1; Orn(4R-OH,5R-OH) = O=C([C@H](C[C@@H](O)[C@@H](O)N[*:3])N[*:1])[*:2]; Pro(3S-OH,4S-Me) = C[C@H]1CN[C@H](C(=O)O)[C@H]1O; X1 = CCCCCOc1ccc(-c2cc(-c3ccc(C(=O)*)cc3)no2)cc1; Gln(3R-OH) = NC(=O)C[C@@H](O)[C@H](N)C(=O)O; Hyp = O=C(O)[C@@H]1C[C@@H](O)CN1

How the values were obtained:
mucormycosis = settings: nivolumab (anti-PD-1) and IFN-γ together, Belgian bomb blast victim, reference 5; cited from earlier work
Saksenaea isolate = assay: CLSI broth dilution antifungal susceptibility testing; settings: Saksenaea isolate from patient wound, CLSI broth dilution reference method
[1] = system: Trichosporon asahii and Saksenaea species; assay: Tissue, wound, blood and bone cultures of the fungal wound sepsis patient; assay type: in vivo, human; settings: posaconazole, amphotericin B and micafungin together, before IL-7
Text: They were aggressively treated with daily or alternating-day operative debridement, broad-spectrum parenteral and topical antibacterial and antifungal therapy. Antimicrobial therapy included ceftazidime, metronidazole, trimethoprim-sulfamethoxazole, micafungin, amphotericin B, and posaconazole (FIG. 29), as well as VERAFLO vac instillation of antimicrobials into the wound bed. The patient's polymicrobial soft tissue infection continued to advance and was accompanied by multisystem organ failure and shock. Over a 4-week period, they required debridement of >3000 cm^2 of skin, subcutaneous tissue, and muscle involving the entire perineum, bilateral thighs, buttocks, and circumferential abdominal wall (FIG. 28B).
Tissue histology also became negative for fungus at approximately the same time as tissue cultures (FIG. 28E).

[2] = system: peripheral blood mononuclear cells (T cell IFN-γ production); assay type: cell-based, human

Row | Molecule | Drug sensitivities (Saksenaea isolate) [µg/mL] | wound cultures for Trichosporon asahii and Saksenaea species despite triple antifungal therapy [1] | also measured
1 | IFN-γ: interferon-γ given as immune-adjuvant therapy | – | – | outcome of immune-adjuvant therapy in refractory mucormycosis (mucormycosis): rapid clinical improvement, enhanced immune phenotypic markers, and fungal elimination
2 | C[C@@H](c1nc(-c2ccc(C#N)cc2)cs1)[C@](O)(Cn1cncn1)c1cc(F)ccc1F [isavuconazole] | 1 | – | –
3 | nivolumab [reference compound] | – | – | outcome of immune-adjuvant therapy in refractory mucormycosis (mucormycosis): rapid clinical improvement, enhanced immune phenotypic markers, and fungal elimination
4 | CCCCCOc1ccc(-c2cc(-c3ccc(C(=O)N[C@H]4C[C@@H](O)[C@@H](O)NC(=O)[C@@H]5[C@@H](O)[C@@H](C)CN5C(=O)[C@H]([C@H](O)CC(N)=O)NC(=O)[C@H]([C@H](O)[C@@H](O)c5ccc(O)c(OS(=O)(=O)O)c5)NC(=O)[C@@H]5C[C@@H](O)CN5C(=O)[C@H]([C@@H](C)O)NC4=O)cc3)no2)cc1 [micafungin] (X1-[Orn(4R-OH,5R-OH)]T[Hyp][hTyr(3S-OH,4S-OH,3'-OSO3H)][Gln(3R-OH)][Pro(3S-OH,4S-Me)]; lactam 1-C) | – | persistently positive | –
5 | CC[C@@H]([C@H](C)O)n1ncn(-c2ccc(N3CCN(c4ccc(OC[C@@H]5CO[C@@](Cn6cncn6)(c6ccc(F)cc6F)C5)cc4)CC3)cc2)c1=O [posaconazole] | 0.25 | persistently positive | –
6 | C[C@@H]1C[C@H]2[C@@H]3CCC4=CC(=O)C=C[C@]4(C)[C@@]3(F)[C@@H](O)C[C@]2(C)[C@@]1(O)C(=O)COP(=O)(O)O [dexamethasone, dexamethasone phosphate] | – | – | decrease in IFN-γ production (ELISpot total well intensity) [2]: 61% and 58%; reduction in the number of IFN-γ secreting cells [2]: 30% and 49%
7 | C[C@@H]1[C@H](O)[C@@H](C)/C=C/C=C/C=C/C=C/C=C/C=C/C=C/[C@H](O[C@@H]2O[C@H](C)[C@@H](O)[C@H](N)[C@@H]2O)C[C@@H]2O[C@](O)(C[C@@H](O)C[C@@H](O)[C@H](O)CC[C@@H](O)C[C@@H](O)CC(=O)O[C@H]1C)C[C@H](O)[C@H]2C(=O)O [amphotericin B] | < 0.03 | persistently positive | –
